The values below come from ChEMBL document CHEMBL3286117, “Synthesis and pharmacological evaluation of analogues of benzyl quinolone carboxylic acid (BQCA) designed to bind irreversibly to an allosteric site of the M ₁ muscarinic acetylcholine receptor” (J Med Chem, 2014).

Assay [1] addresses T1, Muscarinic acetylcholine receptor M1 (Homo sapiens) (UniProt P11229).
T1 sequence (whole entry): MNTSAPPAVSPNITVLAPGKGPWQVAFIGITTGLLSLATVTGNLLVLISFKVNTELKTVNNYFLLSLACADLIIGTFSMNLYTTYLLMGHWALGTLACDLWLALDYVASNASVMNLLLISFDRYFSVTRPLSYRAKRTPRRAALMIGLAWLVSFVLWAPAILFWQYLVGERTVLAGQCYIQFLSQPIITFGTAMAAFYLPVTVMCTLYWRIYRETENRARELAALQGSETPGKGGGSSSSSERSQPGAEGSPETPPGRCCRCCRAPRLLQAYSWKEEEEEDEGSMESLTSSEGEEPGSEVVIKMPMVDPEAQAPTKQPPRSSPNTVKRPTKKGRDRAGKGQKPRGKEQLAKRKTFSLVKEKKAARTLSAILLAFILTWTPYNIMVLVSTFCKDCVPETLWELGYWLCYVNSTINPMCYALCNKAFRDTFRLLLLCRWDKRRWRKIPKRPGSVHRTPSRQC
As to the kind of experiment: Displacement of [3H]NMS from human M1 mAChR expressed in FlpIn-CHO cells after 4 hrs by microplate counting analysis. Type of assay: cell-based. (In general: In a radioligand displacement assay an active substance lowers the binding of a labelled ligand.)

In assay [2] the target is T2, Muscarinic acetylcholine receptor M1 (Homo sapiens, UniProt P11229).
T2 sequence (P11229 whole entry): T1 sequence (whole entry)
As to the kind of experiment: Activation of human M1 mAChR expressed in FlpIn-CHO cells assessed as […] ERK1/2 phosphorylation incubated for 5 mins by Alphascreen assay. Type of assay: cell-based. On the technique in general: Alpha assays give light when donor and acceptor beads are brought close together.

In assay [3] the target is T1, Muscarinic acetylcholine receptor M1 (Homo sapiens). Nature of the assay: Irreversible binding to human M1 mAChR expressed in FlpIn-CHO cell membrane assessed as receptor alkylation incubated for 30 mins prior to [3H]NMS addition measured after 4 hrs by radioligand displacement analysis (reference value: 100%). Type of assay: cell membranes.
For assay [4] the target is unchanged. As to the kind of experiment: Irreversible binding to human M1 mAChR expressed in FlpIn-CHO cells assessed as receptor alkylation incubated for 30 mins prior to [3H]NMS addition measured 4 hrs after compound washout by whole cell radioligand displacement analysis relative to vehicle-treated control. It counts as cell-based.

What is called pKb is −log10 of the Kb, conventionally taken in molar units. The term EC50 denotes the concentration that produces a half-maximal response.

The structures appear in SMILES notation. The source made the active and inactive calls. The rule behind the calls is not given here.

Consider `O=C(CBr)Nc1ccc(Cn2cc(C(=O)O)c(=O)c3ccccc32)cc1`, for which the pKb in assay [1] turned out to be 4.72. In addition, in assay [2], the EC50 is 1580 nM.
On the same counts, the results for `O=C(O)c1cn(Cc2ccc(N3C(=O)C=CC3=O)cc2)c2ccccc2c1=O` are 5.09 and 417 nM.
For the compound `O=C(O)c1cn(Cc2ccc(N=C=S)cc2)c2ccccc2c1=O`, in assay [1], the negative-log Kb (pKb) worked out at 5.22. In assay [2], the EC50 is 389 nM. Besides, the Bmax in assay [3] amounted to 50%. In addition, the result in assay [4] was inactive.
Take `COc1ccc(Cn2cc(C(=O)O)c(=O)c3ccccc32)cc1`: in assay [3], the Bmax came out at 90.8%. Also, the result in assay [4] was inactive.
Consider `O=C(O)c1cn(Cc2ccc(S(=O)(=O)F)cc2)c2ccccc2c1=O`, for which the pKb in assay [1] worked out at 3.97. Moreover, in assay [2], the EC50 is 316 nM.
